From patent publication US20160264616A1, “THERAPEUTIC COMPOUNDS AND METHODS” (priority 2015, published 2016)

System: RGS17ΔN:Gαo interaction in HEK293T cells
Experiment: RGS localization assay, GFP-RGS17ΔN co-transfected with hGαo in HEK293T cells
Assay type: cell-based, human
Conditions: for delocalization of RGS17ΔN from the membrane: 100 μM compound
Method: HEK293T cells co-transfected with GFP-RGS17FL and human Gαo were treated with UI-5, UI-1590 and […] to determine if the compounds could disrupt the RGS17:Gαo interaction that could drive RGS17 to the membrane. […] To test this hypothesis, we constructed a GFP-RGS17 fusion protein with an N-terminal truncation, removing the cysteine-rich motif. […] As a negative control, we tested a known RGS4 inhibitor (CCG-50014) in this assay against RGS17ΔN (21). […] Finally, to ensure the localization was not due to the GFP tag, pAcGFP vector was co-transfected into HEK293T cells with hGαo. […] Cross-sectional fluorescence intensity analysis was used to quantify the intensity of signal at a cross section of the cell. Average signal at the membrane and in the cytoplasm were calculated and change in signal intensity was assessed between time zero and time final. […] Additionally, the control condition of CCG-50014 was subject to the same analyses as the lead compound.
Twenty four (24) hours prior to plating, assay plates were coated with 30 μl poly-D-lysine per well. Human Embryonic Kidney 293T cells (HEK293T) were plated in to 96 well tissue culture treated glass bottom view plates (Perkin Elmer, Part No. 6005430) at a density of 25K cells per well. 24 hours post seeding, cells were transfected with hGαo in pCDNA 3.1(+), pAcGFPRGS17 FL, pAcGFP RGS17ΔN, empty pAcGFP, hGαo+pAcGFPRGS17 FL, hGαo+pAcGFP RGS17ΔN, or hGαo+empty pAcGFP vector using Lipofectamine 2000 (Life Technologies) as the transfection reagent and according to manufacture protocols. 24 hours post transfection, cell media was removed and replaced with […] serum free, phenol red free DMEM (Life Technologies, Ref No. 31053-028). Cells were then imaged using a Zeiss LSM510 confocal microscope (University of Iowa Central Microscopy Core). Images were analyzed using NIH Image J software and Graphpad Prism 6.
Compounds at 2× final desired concentrations were diluted in serum free, phenol red free DMEM.

Cc1ccc(-n2sc(=O)n(Cc3ccc(F)cc3)c2=O)cc1 [CCG-50014, reference compound]
delocalization of RGS17ΔN from the membrane: No delocalization was observed | delocalization of RGS17ΔN from the membrane (listed as 50014): did not result in RGS17ΔN delocalization | change of membrane and cytosolic fluorescence signal (Image J cross-section) (time zero versus time final): no significant change of signal
